Experimental data taken from US9096591B2, “Tetracyclic compounds” (Medivation Technologies, Inc., priority 2007, dated 2015).
Where two headings read alike, the source gives them in different places.

Columns and labels:
[1] = molecular target: T1, human recombinant histamine H1 receptor (Homo sapiens, UniProt P35367); assay: Histamine H1 radioligand binding ([3H]Pyrilamine)
T1 construct: expressed in transfected cells; host or cells: CHO cells
In short: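 Receptor expressed in CHO cells, assayed in 50 mM Tris-HCl pH 7.4 with 2 mM MgCl2, 100 mM NaCl, 250 mM sucrose. Compounds tested at 1 μM in 1% DMSO; non-specific binding set with 1 μM pyrilamine. Filter-bound radioactivity counted; values are percent inhibition of specific binding.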

[2] = molecular target: T2, human recombinant adrenergic α2A receptor (Homo sapiens, UniProt P08913); assay: Adrenergic α2A radioligand binding ([3H]MK-912); design: Inhibition of ligand binding, Adren. alpha2A: concentration or dose not given beside the values; conditions: percent inhibition of specific binding
T2 construct: expressed in transfected cells; host or cells: insect Sf9 cells
T2 sequence (P08913 1-465): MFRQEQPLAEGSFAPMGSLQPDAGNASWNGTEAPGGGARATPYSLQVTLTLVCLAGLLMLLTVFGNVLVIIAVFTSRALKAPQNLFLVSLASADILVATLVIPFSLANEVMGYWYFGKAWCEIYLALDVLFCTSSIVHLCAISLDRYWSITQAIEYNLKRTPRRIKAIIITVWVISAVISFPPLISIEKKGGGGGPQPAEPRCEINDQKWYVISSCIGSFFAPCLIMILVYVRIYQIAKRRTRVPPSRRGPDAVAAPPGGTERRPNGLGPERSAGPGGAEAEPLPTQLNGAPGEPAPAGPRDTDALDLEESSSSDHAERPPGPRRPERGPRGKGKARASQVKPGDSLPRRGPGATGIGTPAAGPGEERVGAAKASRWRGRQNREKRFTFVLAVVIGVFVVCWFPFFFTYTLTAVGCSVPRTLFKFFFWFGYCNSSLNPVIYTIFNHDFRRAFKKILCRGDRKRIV
In short: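 Membranes from Sf9 cells expressing the receptor were incubated with 1 nM [3H]MK-912 for 60 minutes at 25° C in 50 mM Tris-HCl pH 7.4, 12.5 mM MgCl2, 2 mM EDTA. 10 μM WB-4101 defined non-specific binding. Values are percent inhibition of specific bound radioactivity after filtration.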

[3] = molecular target: T3, human recombinant adrenergic α2B receptor (Homo sapiens, UniProt P18089); assay: Adrenergic α2B radioligand binding ([3H]Rauwolscine); design: Inhibition of ligand binding, Adren. alpha2B: concentration or dose not given beside the values; conditions: percent inhibition of specific binding
T3 construct: expressed in transfected cells; host or cells: CHO-K1 cells
T3 sequence (P18089 1-450): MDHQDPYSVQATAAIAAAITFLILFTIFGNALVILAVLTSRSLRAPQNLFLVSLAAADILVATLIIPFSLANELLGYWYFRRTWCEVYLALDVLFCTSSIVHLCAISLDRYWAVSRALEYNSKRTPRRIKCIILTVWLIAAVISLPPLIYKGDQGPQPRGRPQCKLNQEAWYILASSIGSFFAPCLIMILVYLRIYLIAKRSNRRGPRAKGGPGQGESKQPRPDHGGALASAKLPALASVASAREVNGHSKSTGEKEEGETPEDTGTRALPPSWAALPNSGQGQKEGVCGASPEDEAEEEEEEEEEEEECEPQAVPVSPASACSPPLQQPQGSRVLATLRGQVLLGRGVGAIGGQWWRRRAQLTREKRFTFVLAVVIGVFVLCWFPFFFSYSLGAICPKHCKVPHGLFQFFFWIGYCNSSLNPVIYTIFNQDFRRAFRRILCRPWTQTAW
In short: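 Membranes from CHO-K1 cells expressing the receptor, in 50 mM Tris-HCl pH 7.4 with 12.5 mM MgCl2, 1 mM EDTA, 0.2% BSA, incubated with compounds and 2.5 nM [3H]Rauwolscine for 60 minutes at 25 °C.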

[4] = molecular target: T4, human recombinant serotonin (5-Hydroxytryptamine) 5-HT6 receptor (Homo sapiens, UniProt P50406); assay: Serotonin 5-HT6 radioligand binding ([3H]LSD); design: Inhibition of ligand binding, Ser. 5-HT6: concentration or dose not given beside the values; conditions: percent inhibition of specific binding
T4 construct: expressed in transfected cells; host or cells: human HeLa cells
T4 sequence (P50406 whole entry): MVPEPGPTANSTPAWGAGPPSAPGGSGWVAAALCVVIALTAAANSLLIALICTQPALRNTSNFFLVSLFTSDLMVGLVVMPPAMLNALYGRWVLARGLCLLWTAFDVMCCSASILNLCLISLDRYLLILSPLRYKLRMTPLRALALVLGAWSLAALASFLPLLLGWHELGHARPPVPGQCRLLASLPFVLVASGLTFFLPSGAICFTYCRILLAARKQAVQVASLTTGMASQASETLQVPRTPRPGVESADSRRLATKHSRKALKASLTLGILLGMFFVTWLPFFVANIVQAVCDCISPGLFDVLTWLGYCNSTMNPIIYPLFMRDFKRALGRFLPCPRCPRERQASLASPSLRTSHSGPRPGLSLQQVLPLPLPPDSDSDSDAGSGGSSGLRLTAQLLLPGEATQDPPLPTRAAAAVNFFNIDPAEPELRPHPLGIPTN
Source text: Receptor proteins were filtered and washed, the filters were then counted to determine [3H]LSD specifically bound. […] Biochemical assay results are presented as the percent inhibition of specific binding in Table 6.

[5] = molecular target: T5, human recombinant histamine H2 receptor (Homo sapiens, UniProt P25021); assay: Histamine H2 radioligand binding ([125I]Aminopotentidine)
T5 construct: expressed in transfected cells; host or cells: CHO-K1 cells
T5 sequence (P25021 whole entry): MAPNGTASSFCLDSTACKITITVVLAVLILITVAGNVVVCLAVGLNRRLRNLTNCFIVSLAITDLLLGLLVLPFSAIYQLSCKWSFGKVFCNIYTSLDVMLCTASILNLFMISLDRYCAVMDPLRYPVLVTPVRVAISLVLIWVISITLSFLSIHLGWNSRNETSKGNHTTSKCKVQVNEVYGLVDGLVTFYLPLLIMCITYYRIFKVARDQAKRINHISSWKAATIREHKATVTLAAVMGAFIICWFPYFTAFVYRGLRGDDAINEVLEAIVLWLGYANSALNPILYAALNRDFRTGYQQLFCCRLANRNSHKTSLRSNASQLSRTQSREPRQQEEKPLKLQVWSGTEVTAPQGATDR
In short: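 Test compounds were assessed for their ability to displace radioligand from the human recombinant histamine H2 receptor. Non-specific binding was determined in the presence of 3 μM Tiotidine, and results were expressed as percent inhibition of specific binding, with 1% DMSO serving as the vehicle.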

[6] = 1 μM compound, […] [3H]Pyrilamine, read-out: Histamine Binding H1, percent inhibition of specific binding
[7] = percent inhibition of specific binding, screened at 1 μM, read-out: Inhibition of ligand binding, Hist. H1
[8] = 1 μM compound, 0.1 nM [125I]Aminopotentidine, read-out: Histamine Binding H2, percent inhibition of specific binding
[9] = percent inhibition of specific binding, screened at 1 μM, read-out: Inhibition of ligand binding, Hist. H2

T1 sequence (P35367 whole entry): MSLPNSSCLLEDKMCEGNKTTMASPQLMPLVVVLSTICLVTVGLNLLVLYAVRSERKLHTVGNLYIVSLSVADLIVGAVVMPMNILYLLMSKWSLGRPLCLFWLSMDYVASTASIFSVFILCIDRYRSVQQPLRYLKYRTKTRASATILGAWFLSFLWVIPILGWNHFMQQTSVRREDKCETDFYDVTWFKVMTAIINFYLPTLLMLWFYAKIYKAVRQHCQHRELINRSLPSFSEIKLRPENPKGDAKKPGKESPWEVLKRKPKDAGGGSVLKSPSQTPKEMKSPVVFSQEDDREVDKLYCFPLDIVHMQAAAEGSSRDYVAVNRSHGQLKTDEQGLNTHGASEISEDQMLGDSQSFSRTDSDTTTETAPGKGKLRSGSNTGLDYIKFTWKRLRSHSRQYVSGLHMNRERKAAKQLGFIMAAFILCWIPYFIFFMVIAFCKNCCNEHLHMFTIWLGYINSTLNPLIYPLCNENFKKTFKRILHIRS

| inhibition at 1 µM [1, 6] | inhibition at 1 µM [1, 7] | Inhibition of ligand binding, Adren. alpha2A [2] | Inhibition of ligand binding, Adren. alpha2B [3] | Inhibition of ligand binding, Ser. 5-HT6 [4] | inhibition at 1 µM [5, 8] | inhibition at 1 µM [5, 9] | SMILES |
| --- | --- | --- | --- | --- | --- | --- | --- |
| 42% | 42% | 0% | 9% | 18% | 17% | 17% | CN1CCc2c(c3cc(Cl)ccc3n2CC(=O)N2CCCCC2)C1 [Compound 236, 2-(8-chloro-1,2,3,4-tetrahydro-2-methylpyrido[4,3-b]indol-5-yl)-1-(piperidin-1-yl)ethanone] |
| 77% | 77% | 26% | 12% | 20% | 24% | 24% | CC1CCN(C(=O)Cn2c3c(c4cc(Cl)ccc42)CN(C)CC3)CC1 [Compound 237, 2-(8-chloro-1,2,3,4-tetrahydro-2-methylpyrido[4,3-b]indol-5-yl)-1-(4-methylpiperidin-1-yl)ethanone] |
| 26% | 26% | −13% | 14% | 5% | 6% | 6% | CN1CCc2c(c3cc(Cl)ccc3n2CC(=O)N2CCOCC2)C1 [Compound 238, 2-(8-chloro-1,2,3,4-tetrahydro-2-methylpyrido[4,3-b]indol-5-yl)-1-morpholinoethanone] |
| 50% | 50% | 0% | 24% | 8% | 10% | 10% | CN1CCc2c(c3cc(Cl)ccc3n2CC(=O)N2CCSCC2)C1 [Compound 239, 2-(8-chloro-1,2,3,4-tetrahydro-2-methylpyrido[4,3-b]indol-5-yl)-1-thiomorpholinoethanone] |
| 60% | 60% | 36% | 50% | 25% | 23% | 23% | CN1CCc2c(c3cc(Cl)ccc3n2CCC(=O)N2CCCC2)C1 [Compound 240, 3-(8-chloro-1,2,3,4-tetrahydro-2-methylpyrido[4,3-b]indol-5-yl)-1-(pyrrolidin-1-yl)propan-1-one] |
| 84% | 84% | 3% | 6% | 12% | 17% | 17% | CN1CCc2c(c3cc(Cl)ccc3n2CC(=O)N2CCCC2)C1 [Compound 243, 2-(8-chloro-1,2,3,4-tetrahydro-2-methylpyrido[4,3-b]indol-5-yl)-1-(pyrrolidin-1-yl)ethanone] |
| 15% | 15% | 22% | 13% | 13% | 10% | 10% | CN1CCc2c(c3cc(Cl)ccc3n2CC(=O)N2CCNCC2)C1 [Compound 244] |
| 22% | 22% | 8% | 19% | −2% | 8% | 8% | CC1CN(C(=O)Cn2c3c(c4cc(Cl)ccc42)CN(C)CC3)CC(C)N1 (stereo not shown) [Compound 245] |
| 18% | 18% | 21% | 11% | 2% | 16% | 16% | CN1CCc2c(c3cc(Cl)ccc3n2CC(=O)N2CCNC(=O)C2)C1 [Compound 246] |

More lines, now with the values behind:

| SMILES | inhibition at 1 µM [1, 6] | inhibition at 1 µM [1, 7] | Inhibition of ligand binding, Adren. alpha2A [2] | Inhibition of ligand binding, Adren. alpha2B [3] | Inhibition of ligand binding, Ser. 5-HT6 [4] | inhibition at 1 µM [5, 8] | inhibition at 1 µM [5, 9] |
| --- | --- | --- | --- | --- | --- | --- | --- |
| Cc1ccc2c(c1)c1c(n2CCCc2ccccn2)CCN(C)C1 [Compound 233, 2,3,4,5-tetrahydro-2,8-dimethyl-5-(3-(pyridin-2-yl)propyl)-1H-pyrido[4,3-b]indole] | 99% | 99% | 90% | 96% | 95% | 45% | 45% |
| COc1ccc(CCn2c3c(c4cc(C)ccc42)CN(C)CC3)cc1 [Compound 247] | 100% | 100% | 99% | 103% | 107% | 97% | 97% |
| Cc1ccc2c(c1)c1c(n2CCc2ccc(C(=O)O)nc2)CCN(C)C1 [Compound 255] | 71% | 71% | −8% | 4% | 2% | -15% | -15% |
| Cc1ccc2c(c1)c1c(n2CCc2ccc(CO)nc2)CCN(C)C1 [Compound 267] |  | 96% | 49% | 100% | 69% |  | 42% |
| Cc1ccc(CCn2c3c(c4cc(C(=O)O)ccc42)CNCC3)cn1 [Compound 274, 2,3,4,5-tetrahydro-5-(2-(6-methylpyridin-3-yl)ethyl)-1H-pyrido[4,3-b]indole-8-carboxylic acid] |  | 1% | 7% | 9% | −2% |  | -2% |
| CCOC(=O)c1ccc(CCn2c3c(c4cc(C)ccc42)CN(C)CC3)cn1 [Compound 275, ethyl 5-(2-(1,2,3,4-tetrahydro-2,8-dimethylpyrido[4,3-b]indol-5-yl)ethyl)pyridine-2-carboxylate] |  | 92% | 29% | 92% | 56% |  | 20% |
| CN1CCc2c(c3cc(Cl)ccc3n2CC(=O)N2CCS(=O)(=O)CC2)C1 [Compound 295] |  | -3% | 26% | 18% | −1% |  | 10% |
| CN1CCc2c(c3cc(Cl)ccc3n2CC(=O)N2CC[S+]([O-])CC2)C1 [Compound 296, 2-(8-Chloro-2-methyl-1,2,3,4-tetrahydro-pyrido[4,3-b]indol-5-yl)-1-(1-oxo-1l4-thiomorpholin-4-yl)-ethanone] |  | 36% | 1% | −8% | 3% |  | -4% |
